# Reference: patent publication US11186603B2, “Heparan sulfate glycomimetic compounds and their pharmaceutical and cosmeceutical uses” (VICTORIA LINK LIMITED, priority 2017, dated 2021)
# Where “and” joins values, the source holds several entries; their conditions need not be identical. Equal values may be shown once. Entries after “also recorded” stand apart in the source; their conditions may differ.
# Tests used:
# [1] = molecular target: T1, Recombinant human heparanase (Homo sapiens, UniProt Q9Y251); assay: Heparanase inhibition colorimetric assay (fondaparinux / WST-1); assay type: biochemical; conditions: FIGS. 1 to 3; inhibitor 1 μM, 10 μM and dose response
# T1 construct: made in house; host or cells: insect cells
# T1 sequence (Q9Y251 158-543 limits assumed): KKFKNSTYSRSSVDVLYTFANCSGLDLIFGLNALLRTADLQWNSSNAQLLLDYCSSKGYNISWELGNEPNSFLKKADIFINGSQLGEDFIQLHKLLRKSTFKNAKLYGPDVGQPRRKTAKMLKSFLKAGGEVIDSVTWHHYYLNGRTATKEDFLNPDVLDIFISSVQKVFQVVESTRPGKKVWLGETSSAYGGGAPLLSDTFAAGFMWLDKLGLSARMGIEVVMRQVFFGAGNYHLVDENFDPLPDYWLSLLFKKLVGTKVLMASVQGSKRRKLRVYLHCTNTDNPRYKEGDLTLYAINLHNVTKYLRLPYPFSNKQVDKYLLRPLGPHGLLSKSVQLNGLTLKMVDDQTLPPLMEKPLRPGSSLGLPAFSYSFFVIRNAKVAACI
# T1 sequence (Q9Y251 36-109 limits assumed): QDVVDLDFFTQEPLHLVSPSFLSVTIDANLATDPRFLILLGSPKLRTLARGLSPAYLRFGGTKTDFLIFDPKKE
# Description: The assay methodology used is described in Hammond, E., et al., Development of a colorimetric assay for heparanase activity suitable for kinetic analysis and inhibitor screening, Anal. Biochem. 2010, 396 (1), 112-116.
# Reagents were obtained from Sigma-Aldrich. Assays were carried out in 96-well microplates (Costar 9018 EIA/RIA, Corning) that had been pretreated with a solution of 4% bovine serum albumin (BSA) in phosphate-buffered saline containing 0.05% Tween 20 (PBST) for 2 h at 37° C. The plates were then washed three times with PBST and shaken dry. Pretreated plates were stored at 4° C. for up to 2 weeks before use.
# Recombinant human heparanase was expressed in insect cells and then purified from the cell medium into which it had been secreted. […] Fractions containing pure heparanase, determined by silver staining of sodium dodecyl sulfate-polyacrylamide gel electrophoresis (SDS-PAGE), were pooled, dialyzed into 10 mM sodium phosphate (pH 7.0), concentrated using Centriplus concentrating devices (Millipore), and stored at −80° C. until use.
# Assay solutions (100 μl) were composed of 40 mM sodium acetate buffer (pH 5.0) and […] fondaparinux (GlaxoSmithKline) with or without inhibitor. […] The plates were resealed with adhesive tape and developed at 60° C. for 60 min, and the absorbance was measured at 584 nm (FLUOstar, BMG Labtech).
# [2] = system: human dermal fibroblast cell line, CRL2071; assay: Production of collagen type I (ELISA); assay type: cell-based
# Description: Cells from the human dermal fibroblast cell line, CRL2071 (passages 12-14), obtained from normal breast skin of a person, were allowed to attach for 6-8 hours before the addition of the test compounds. After 72 h of exposure to the test articles the media was removed, cells counted and the cell-associated fraction extracted. The media and cell-associated fraction were analysed for the concentration of collagen type I using a Chondrex Human type I Collagen Detection Kit ELISA (Cat #6021).
# After complete dissolution the solutions were sterile filtered through a […] syringe filter and kept at 4° C. until use. Prior to each experiment dilutions were freshly prepared by diluting to 100 nM, 1 μM or 10 μM in cell-specific media.
# (§1) The test compounds, positive controls and no treatment media were added to the flasks (2.5 ml/flask) and cells were incubated for 72 h before removal of the supernatant. After removal of the supernatant, cell monolayers were trypsinsed with 2.5 ml of 0.025% trypsin/[…] in PBS to each flask. After cell detachment (7-10 min), 1 ml of the cell/trypsin mixture was added to a 20 ml counting vial containing 9 ml of normal saline. The cells were quantitated with a Coulter Counter Z2.
# In some treatments cells were found floating. They were collected, counted and subjected to viability testing using 1% trypan blue staining. The remaining 1.5 ml of trypsin/cell mixture was sonicated with a Branson tip-probed sonicator for 1 min, setting 6 before centrifugation at 10,000 rpm for 10 min. The supernatant was removed and used in the collagen ELISA for the quantitation of cell-associated collagen.
# [3] = system: human dermal fibroblast cell line, CRL2071; assay: Production of hyaluronan (ELISA); assay type: cell-based; conditions: liberated, 10 μM, 72 h
# Description: Cells from the human dermal fibroblast cell line, CRL2071 (passages 12-14), obtained from normal breast skin of a person, were allowed to attach for 6-8 hours before the addition of the test compounds. After 72 h of exposure to the test articles the media was removed, cells counted and the cell-associated fraction extracted. The media and cell-associated fraction were analysed for the concentration of hyaluronan using a Hyaluronan Detection Kit ELISA.
# as §1
# In some treatments cells were found floating. They were collected, counted and subjected to viability testing using 1% trypan blue staining. The remaining 1.5 ml of trypsin/cell mixture was sonicated with a Branson tip-probed sonicator for 1 min, setting 6 before centrifugation at 10,000 rpm for 10 min. The supernatant was removed and used in the hyaluronan ELISA for the quantitation of cell-associated hyaluronan.
# [4] = system: bacterial collagenase type II from Clostridium histolyticum; assay: Colorimetric gelatinolytic assay, collagenase inhibition; assay type: biochemical; conditions: 10 μM
# Description: A colorimetric gelatinolytic assay was used to evaluate the effects of heparanase inhibitors on the activity of bacterial collagenase type II from Clostridium histolyticum. The reaction mixture was prepared in a total volume of 20 μl for each well of the microplate/inhibition assay. First, 1 ul of 100 ng of bacterial collagenase and 2 μl of the heparanase inhibitor or positive control (50 μg/ml doxycycline) were added into each well of a 96-well plate and incubated at 37° C. for 60 min. On completion of the incubation, 10 μg of gelatin and 2 μl of 10× collagenase buffer (500 mM Tris-HCl, 100 mM CaCl2, and 1.5 M NaCl) were added to distilled water to obtain the final volume of 20 μl. The plate was then incubated at 37° C. for 4 h. Subsequently, the amount of gelatin remaining was quantified by the addition of 20 μl of 2.5% w/v of Coomassie Brilliant blue R-250 (Sigma-Aldrich) dissolved in 40% methanol/10% acetic acid, followed by shaking on an orbital shaker for 5 min. The supernatant was carefully removed by pipette to ensure that the gelatin pellet was not disturbed and 50 μl of dimethyl sulfoxide was added to dissolve the pellet. The plate was incubated at room temperature for 15 min followed by shaking on an orbital shaker for 5 min. The plate was then read in a Versa max microplate reader at 600 nm.
smiles,measurement,setting,value
O=C(CCOCC(COCCC(=O)NCCCCCCOC1OC(COS(=O)(=O)[O-])C(OS(=O)(=O)[O-])C(OS(=O)(=O)[O-])C1OS(=O)(=O)[O-])(COCCC(=O)NCCCCCCOC1OC(COS(=O)(=O)[O-])C(OS(=O)(=O)[O-])C(OS(=O)(=O)[O-])C1OS(=O)(=O)[O-])COCCC(=O)NCCCCCCOC1OC(COS(=O)(=O)[O-])C(OS(=O)(=O)[O-])C(OS(=O)(=O)[O-])C1OS(=O)(=O)[O-])NCCCCCCOC1OC(COS(=O)(=O)[O-])C(OS(=O)(=O)[O-])C(OS(=O)(=O)[O-])C1OS(=O)(=O)[O-].[Na+].[Na+].[Na+].[Na+].[Na+].[Na+].[Na+].[Na+].[Na+].[Na+].[Na+].[Na+].[Na+].[Na+].[Na+].[Na+] (stereo not shown) [Compound 17b],inhibition of heparanase (in words),[1],particularly good inhibitors; also recorded: very good inhibition of heparanase
same,"Collagen as % of No Treatment Control (Mean ± SD), Cell-associated",[2],"1,155 ± 25% and 2,371 ± 49% and 2,371%"
same,Hyaluronan as % of No Treatment Control (Mean ± SD),[3],167 ± 36p = 0.233%
same,"Collagenase inhibition as a % of the ""No Treatment"" control (Mean ± SD)",[4],74 ± 2%
